Laboratory results from US20120202794A1 (priority 2011, published 2012).

Assays:
HCV Replicon 1b = test: HCV inhibition assay, HCV replicon 1b (Clone A or ET-lunet cells; RT-PCR or luciferase reporter); assay type: cell-based; conditions: Hepatitis C virus, 96 h, HCV replicon 1b; 4 days incubation; read-out: Replicon 1b potency EC90
Protocol: HCV inhibition assay. Clone A or ET-lunet cells were seeded at a density of 1500 or 3000 cells per well in a 96-well plate, respectively. Test compounds serially diluted in culture medium without G418 were added to cells so that the final DMSO concentration was 0.5%. Plates were incubated at 37° C. in a 5% CO2 atmosphere for 4 days. Inhibition of HCV RNA replication was determined by real time PCR (RT-PCR) or by measuring the levels of luminescence expressed via the luciferase reporter gene encoded within the ET replicon. Briefly, for the RT-PCR assay, total RNA was extracted using the RNeasy-96 kit as recommended by the manufacturer (Qiagen, Valencia, Calif.), reversed transcribed into cDNA, and amplified using primer and probe mix for HCV 5′-NTR RNA and human ribosomal RNA (rRNA) in a one-step RT-PCR reaction as described previously (50). A relative quantification method was used to determine the extent of inhibition. The threshold cycle (Ct) of rRNA was subtracted from the Ct of HCV RNA (ΔCt). The average ΔCt of the DMSO cell controls was then subtracted from the ΔCt of the compound treated sample (ΔΔCt). Percent inhibition was determined by using the following equation: %=(1−(2^−ΔΔC^t))×100. For the luciferase-based replicon assay, luminescence was measured by using a Victor3 plate reader (Perkin-Elmer, Boston, Mass.) following the addition of Bright-Glo reagent as recommended by the manufacturer (Promega, Madison, Wis.). Percent inhibition of HCV replication was determined by comparing the change in luminescence of the drug treated wells versus the DMSO cell controls. EC50 and EC90 values, the concentrations at which 50% and 90% inhibition were achieved, were determined using the GraphPad Prism software (San Diego, Calif.).

[1] = Cell cytotoxicity assay (MTS), CC90 as reported in Table 1, cell line not stated; assay type: cell-based; conditions: human; cell line not given
Protocol: Cell cytotoxicity assays. Each compound (serially diluted from 100 μM) was added to Huh7 (2×10^3 cells/well), HepG2 (2×10^3 cells/well), BxPC3 (2×10^3 cells/well), or CEM (5×10^3 cells/well) cells and allowed to incubate for 8 days at 37° C. A medium only control was used to determine the minimum absorbance value […]. At the end of the growth period, MTS dye from the CellTiter 96 Aqueous One Solution Cell Proliferation Assay kit (Promega) was added to each well and the plate was incubated for an additional 2 hours. The absorbance at 490 nm was read with a Victor3 plate reader (Perkin Elmer) using the medium only control wells as blanks. The 90% inhibition value (CC90) was determined by comparing the absorbance in wells containing cells and test compound to untreated cell control wells.

CC(C)C[C@H]1C(=O)N[C@@H](C2CCCC2)CN1C(=O)c1cc(-c2ccc(F)cc2)on1 [Compound 163]
EC90 (HCV Replicon 1b): 90 nM | CC90 at 8 days [1]: > 10000 nM

CCC[C@H]1CN(C(=O)c2cc(-c3ccc(F)cc3F)on2)[C@@H](CC(C)C)C(=O)N1 [Compound 165]
EC90 (HCV Replicon 1b): 340 nM | CC90 at 8 days [1]: > 10000 nM

CC(C)C[C@H]1C(=O)N[C@@H](CC2CC2)CN1C(=O)c1cc(-c2ccc(Cl)cc2)on1 [Compound 166]
EC90 (HCV Replicon 1b): 360 nM | CC90 at 8 days [1]: > 10000 nM

CC(C)C[C@H]1C(=O)N[C@@H](CC2CC2)CN1C(=O)c1cc(-c2ccc(F)cc2)on1 [Compound 167]
EC90 (HCV Replicon 1b): 450 nM | CC90 at 8 days [1]: > 10000 nM

CC(C)C[C@H]1C(=O)N[C@@H](CC2CC2)CN1C(=O)c1cc(-c2cccs2)on1 [Compound 168]
EC90 (HCV Replicon 1b): 900 nM | CC90 at 8 days [1]: > 10000 nM

CCC[C@H]1CN(C(=O)c2cc(-c3cccs3)on2)[C@@H](CC(C)C)C(=O)N1 [Compound 169]
EC90 (HCV Replicon 1b): 150 nM | CC90 at 8 days [1]: > 10000 nM

CCC[C@H]1CN(C(=O)c2cc(-c3ccc(Cl)cc3)on2)[C@@H](CC(C)C)C(=O)N1 [Compound 170]
EC90 (HCV Replicon 1b): 50 nM | CC90 at 8 days [1]: > 10000 nM

CC(C)C[C@H]1C(=O)N[C@@H](C2CCCCC2)CN1C(=O)c1cc(-c2ccc(Cl)cc2)on1 [Compound 171]
EC90 (HCV Replicon 1b): 150 nM | CC90 at 8 days [1]: > 10000 nM

CC(C)C[C@H]1C(=O)N[C@@H](C2CCCCC2)CN1C(=O)c1cc(-c2cccs2)on1 [Compound 172]
EC90 (HCV Replicon 1b): 410 nM | CC90 at 8 days [1]: > 10000 nM

CC(C)C[C@H]1C(=O)N[C@@H](C2CCCC2)CN1C(=O)c1cc(-c2ccc(Cl)cc2)on1 [Compound 173]
EC90 (HCV Replicon 1b): 120 nM | CC90 at 8 days [1]: > 10000 nM

CC(C)C[C@H]1C(=O)N[C@@H](C2CCCC2)CN1C(=O)c1cc(-c2cccs2)on1 [Compound 174]
EC90 (HCV Replicon 1b): 250 nM | CC90 at 8 days [1]: > 10000 nM

CC(C)C[C@H]1C(=O)N[C@@H](C(C)C)CN1C(=O)c1cc(-c2ccc(F)cc2)on1 [Compound 175]
EC90 (HCV Replicon 1b): 170 nM | CC90 at 8 days [1]: > 10000 nM

CC(C)C[C@H]1CN(C(=O)c2cc(-c3ccc(S(C)(=O)=O)cc3)on2)[C@@H](CC(C)C)C(=O)N1 [Compound 176]
EC90 (HCV Replicon 1b): > 20000 nM | CC90 at 8 days [1]: > 10000 nM

CC(C)C[C@H]1C(=O)N[C@@H](c2ccccc2)CN1C(=O)c1cc(-c2ccc(F)cc2)on1 [Compound 178]
EC90 (HCV Replicon 1b): 50 nM | CC90 at 8 days [1]: > 10000 nM

CC(C)C[C@H]1CN(C(=O)c2cc(-c3ccc(OC(F)(F)F)cc3)on2)[C@@H](CC(C)C)C(=O)N1 [Compound 179]
EC90 (HCV Replicon 1b): 14900 nM | CC90 at 8 days [1]: > 10000 nM

CC(C)C[C@H]1C(=O)N[C@@H](C2CC2)CN1C(=O)c1cc(-c2ccc(F)cc2)on1 [Compound 180]
EC90 (HCV Replicon 1b): 600 nM | CC90 at 8 days [1]: > 10000 nM

CC(C)C[C@H]1C(=O)N[C@@H](C(C)C)CN1C(=O)c1cc(-c2ccc(Cl)cc2)on1 [Compound 181]
EC90 (HCV Replicon 1b): 230 nM | CC90 at 8 days [1]: > 10000 nM

CSC[C@H]1CN(C(=O)c2cc(-c3ccc(Cl)cc3)on2)[C@@H](CC(C)C)C(=O)N1 [Compound 182]
EC90 (HCV Replicon 1b): 550 nM | CC90 at 8 days [1]: > 10000 nM

CC(C)C[C@H]1C(=O)N[C@@H](c2ccccc2)CN1C(=O)c1cc(-c2ccc(Cl)cc2)on1 [Compound 183]
EC90 (HCV Replicon 1b): 60 nM | CC90 at 8 days [1]: > 10000 nM

CCC[C@H]1CN(C(=O)c2cc(-c3ccc(F)c(F)c3)on2)[C@@H](CC(C)C)C(=O)N1 [Compound 184]
EC90 (HCV Replicon 1b): 140 nM | CC90 at 8 days [1]: > 10000 nM

CC(C)C[C@H]1C(=O)N[C@@H](C2CCCCC2)CN1C(=O)c1cc(-c2ccc(F)c(F)c2)on1 [Compound 185]
EC90 (HCV Replicon 1b): 610 nM | CC90 at 8 days [1]: > 10000 nM

CC(C)C[C@H]1C(=O)N[C@@H](C2CCCC2)CN1C(=O)c1cc(-c2ccc(F)c(F)c2)on1 [Compound 186]
EC90 (HCV Replicon 1b): 260 nM | CC90 at 8 days [1]: > 10000 nM

CC(C)C[C@H]1C(=O)N[C@@H](C(C)C)CN1C(=O)c1cc(-c2ccc(F)c(F)c2)on1 [Compound 187]
EC90 (HCV Replicon 1b): 620 nM | CC90 at 8 days [1]: > 10000 nM

CC(C)C[C@H]1C(=O)N[C@@H](c2ccccc2)CN1C(=O)c1cc(-c2ccc(F)c(F)c2)on1 [Compound 188]
EC90 (HCV Replicon 1b): 180 nM | CC90 at 8 days [1]: > 10000 nM

CCC[C@H]1CN(C(=O)c2cc(-c3ccc(F)cc3)no2)[C@@H](CC(C)C)C(=O)N1 [Compound 189]
EC90 (HCV Replicon 1b): 110 nM | CC90 at 8 days [1]: > 10000 nM

CC(C)C[C@H]1CN(C(=O)c2cc(-c3ccc(Cl)cc3)no2)[C@@H](CC(C)C)C(=O)N1 [Compound 190]
EC90 (HCV Replicon 1b): 320 nM | CC90 at 8 days [1]: > 10000 nM

CC(C)C[C@H]1C(=O)N[C@@H](CC2CC2)CN1C(=O)c1cc(-c2ccc(F)cc2)no1 [Compound 191]
EC90 (HCV Replicon 1b): 120 nM | CC90 at 8 days [1]: > 10000 nM

CC(C)C[C@H]1C(=O)N[C@@H](C2CCCCC2)CN1C(=O)c1cc(-c2ccc(F)cc2)no1 [Compound 193]
EC90 (HCV Replicon 1b): 50 nM | CC90 at 8 days [1]: > 10000 nM

CC(C)C[C@H]1C(=O)N[C@@H](C2CCCC2)CN1C(=O)c1cc(-c2ccc(F)cc2)no1 [Compound 194]
EC90 (HCV Replicon 1b): 40 nM | CC90 at 8 days [1]: > 10000 nM

CC(C)C[C@H]1CN(Cc2cc(-c3ccccc3)on2)[C@@H](CC(C)C)C(=O)N1 [Compound 195]
EC90 (HCV Replicon 1b): 750 nM | CC90 at 8 days [1]: > 10000 nM

CC(C)C[C@H]1CN(Cc2cc(-c3ccc(F)cc3)on2)[C@@H](CC(C)C)C(=O)N1 [Compound 196]
EC90 (HCV Replicon 1b): 80 nM | CC90 at 8 days [1]: > 10000 nM

CC(C)C[C@H]1CN(Cc2cc(-c3ccc(Cl)cc3)on2)[C@@H](CC(C)C)C(=O)N1 [Compound 197]
EC90 (HCV Replicon 1b): 240 nM | CC90 at 8 days [1]: > 10000 nM

CC(C)C[C@H]1CN(Cc2cc(-c3ccc(Br)cc3)on2)[C@@H](CC(C)C)C(=O)N1 [Compound 198]
EC90 (HCV Replicon 1b): 550 nM | CC90 at 8 days [1]: > 10000 nM

Cc1ccc(-c2cc(CN3C[C@H](CC(C)C)NC(=O)[C@@H]3CC(C)C)no2)cc1 [Compound 199]
EC90 (HCV Replicon 1b): 2150 nM | CC90 at 8 days [1]: > 10000 nM

COc1ccc(-c2cc(CN3C[C@H](CC(C)C)NC(=O)[C@@H]3CC(C)C)no2)cc1 [Compound 200, (3S,6S)-3,6-Diisobutyl-4-((5-(4-methoxyphenyl)isoxazol-3-yl)methyl)piperazin-2-one]
EC90 (HCV Replicon 1b): 5790 nM | CC90 at 8 days [1]: > 10000 nM

CC(C)C[C@H]1CN(Cc2cc(-c3ccco3)on2)[C@@H](CC(C)C)C(=O)N1 [Compound 201, (3S,6S)-4-((5-(Furan-2-yl)isoxazol-3-yl)methyl)-3,6-diisobutylpiperazin-2-one]
EC90 (HCV Replicon 1b): 1820 nM | CC90 at 8 days [1]: > 10000 nM

CC(C)C[C@H]1CN(Cc2cc(-c3cccs3)on2)[C@@H](CC(C)C)C(=O)N1 [Compound 202, (3S,6S)-3,6-Diisobutyl-4-((5-(thiophen-2-yl)isoxazol-3-yl)methyl)piperazin-2-one]
EC90 (HCV Replicon 1b): 880 nM | CC90 at 8 days [1]: > 10000 nM

CC(C)C[C@H]1C(=O)N[C@@H](C(C)(C)C)CN1Cc1cc(-c2ccc(F)cc2)on1 [Compound 205, (3S,6S)-6-(tert-butyl)-4-((5-(4-fluorophenyl)isoxazol-3-yl)methyl)-3-isobutylpiperazin-2-one]
EC90 (HCV Replicon 1b): 8900 nM | CC90 at 8 days [1]: > 10000 nM

CCC[C@H]1CN(Cc2cc(-c3ccc(F)cc3)on2)[C@@H](CC(C)C)C(=O)N1 [Compound 206, (3S,6S)-4-((5-(4-fluorophenyl)isoxazol-3-yl)methyl)-3-isobutyl-6-propylpiperazin-2-one]
EC90 (HCV Replicon 1b): 210 nM | CC90 at 8 days [1]: > 10000 nM

CC(C)C[C@H]1C(=O)N[C@@H](C2CCCCC2)CN1Cc1cc(-c2ccc(F)cc2)on1 [Compound 207, (3S,6S)-6-cyclohexyl-4-((5-(4-fluorophenyl)isoxazol-3-yl)methyl)-3-isobutylpiperazin-2-one]
EC90 (HCV Replicon 1b): 860 nM | CC90 at 8 days [1]: > 10000 nM

CC(C)C[C@H]1C(=O)N[C@@H](C2CCCC2)CN1Cc1cc(-c2ccc(F)cc2)on1 [Compound 208, (3S,6S)-6-cyclopentyl-4-((5-(4-fluorophenyl)isoxazol-3-yl)methyl)-3-isobutylpiperazin-2-one]
EC90 (HCV Replicon 1b): 210 nM | CC90 at 8 days [1]: > 10000 nM

CC(C)C[C@H]1C(=O)N[C@@H](CC2CC2)CN1Cc1cc(-c2ccc(Cl)cc2)on1 [Compound 209, (3S,6S)-4-((5-(4-chlorophenyl)isoxazol-3-yl)methyl)-6-(cyclopropylmethyl)-3-isobutylpiperazin-2-one]
EC90 (HCV Replicon 1b): 670 nM | CC90 at 8 days [1]: > 10000 nM

CCC[C@H]1CN(Cc2cc(-c3ccc(Cl)cc3)on2)[C@@H](CC(C)C)C(=O)N1 [Compound 210, (3S,6S)-4-((5-(4-chlorophenyl)isoxazol-3-yl)methyl)-3-isobutyl-6-propylpiperazin-2-one]
EC90 (HCV Replicon 1b): 320 nM | CC90 at 8 days [1]: > 10000 nM
